In patent US8299040B2, “Methods for treating cancer targeting transglutaminase” (Board of Regents, The University of Texas System, priority 2006, dated 2012):

Experiments:
TG2 [1] = assay: TG2 transcript level in MDA-Panc28 cells (RT-PCR); format: cell-based, human
Procedure: Cells were collected for isolation of total RNA. Total cellular RNA was isolated with Trizol reagent (Invitrogen/Life Technologies, Carlsbad, Calif., USA), and cDNA was obtained from 5 μg of total RNA using a Superscript II RT kit (Invitrogen/Life Technologies). Briefly, 5 μl of the total 20 μl of reverse-transcribed product was used for PCR in 1×PCR buffer containing 1.5 mM MgCl2, 250 μM dNTPs, 0.5 units of Taq polymerase (Invitrogen/Life Technologies), and 100 ng of TG2 primer (primer 1,5′-[…]-3′; primer II, 5′-[…] GAGCAGG-3′) or β-actin-specific primer (Sigma-Genosys, Houston, Tex., USA). Thirty cycles were used for PCR analysis. The reaction products were analyzed on a 2% agarose gel containing ethidium bromide, and cDNA synthesis was verified by detection of the β-actin transcript, which was used as an internal control.

MDA-Panc28 cells [2] = assay: Apoptosis in MDA-Panc28 cells (sub-G1 FACS, PARP cleavage); format: cell-based, human
Procedure: PARP cleavage positive cell lysate was used as a positive control. (C) Morphological changes after treatment with rottlerin. Microphotographs were taken using a phase-contrast microscope (300× magnification). Left panel, untreated cells at 48 h of treatment; center panel, cells treated for 48 h, and right panel, cells treated for 96 h.

Beclin 1 = Beclin 1 expression in MDA-Panc28 cells; format: cell-based, human; conditions: MDA-Panc28, data not shown
TG2 [3] = assay: TG2 expression in pancreatic cancer cell lines (western blot); format: cell-based, human; conditions: 4 μM for 48 h, all pancreatic cancer cell lines tested
Procedure: (A) A panel of pancreatic cancer cell lines including MDA-Panc28, Capan-2, Bx-PC3, Panc1 and MIAPaCa cells were treated with Rottlerin (4 μM) for 48 h for the detection of LC3-II and TG2 expression by western blot. (B) MCF-7 cell line was also tested for LC3-II and TG2 expression by western blot. (C) Expression of TG2 in MDA-Panc28 cells was determined upon exposure to different treatments (D) Detection of autophagolysosomes; MDA-Panc28 cells were treated with either control siRNA, Rottlerin or TG2 siRNA for 48 h. Photomicrographs show morphological changes of the cells by phase contrast microscopy (left panels); acridine orange staining of the acidic vesicular organelles by fluorescent microscopy (center panels) and the localization LC3-II at autophagosomes in cells after transfection with GFP-LC3 plasmid (right panels). […]
After treatment, the cells were collected and centrifuged, and whole-cell lysates were obtained using a lysis buffer. Total protein concentration was determined using a DC protein assay kit (Bio-Rad, Hercules, Calif., USA). […] Mouse anti-β-actin and donkey anti-mouse secondary antibody were purchased from Sigma Chemical (St. Louis, Mo., USA) so that β-actin expression could be monitored to ensure equal loading of proteins. […] The blots were visualized with a Fluor Chem 8900 imager and quantified by a densitometer using the Alpha Imager application program (Alpha Innotech). […]

MDA-Panc28 cells [4] = assay: Growth inhibition in MDA-Panc28 cells; format: cell-based; conditions: Homo sapiens, MDA-Panc-28; 4 μM for 48 h; read-out: inhibition in cell growth
Procedure: Pancreatic cell lines MDA-Panc28, Capan-2, Bx-PC3, Panc1 and MIAPaCa were provided by Dr. Shrikant Reddy (M. D. Anderson Cancer Center). MDA-Panc28 and Bx-PC3 cell lines were maintained in RPMI-1640 medium supplemented with 10% fetal calf serum. Panc1 and MIAPaCa cell lines and Capan-2 cells were maintained in DMEM and McCoy's 5A, respectively. All media were supplemented with 10% fetal calf serum. For the cell proliferation experiments, cells were seeded at a density of 1-2×10^5 cells in T-25 tissue culture flasks. Twenty-four hours after the seeding, cells were treated with various concentrations of rottlerin for the indicated periods of time. Adherent cells were collected by trypsinization, and cell numbers were determined using a Neubauer cell counting chamber. All experiments were replicated at least two times.

PKCδ = target: T1, PKCδ (Homo sapiens, UniProt Q05655); assay: PKCδ protein expression in MDA-Panc28 cells (western blot); format: cell-based; conditions: 48 h
T1 construct: endogenous in cells; host or cells: MDA-Panc28
T1 sequence (Q05655 whole entry): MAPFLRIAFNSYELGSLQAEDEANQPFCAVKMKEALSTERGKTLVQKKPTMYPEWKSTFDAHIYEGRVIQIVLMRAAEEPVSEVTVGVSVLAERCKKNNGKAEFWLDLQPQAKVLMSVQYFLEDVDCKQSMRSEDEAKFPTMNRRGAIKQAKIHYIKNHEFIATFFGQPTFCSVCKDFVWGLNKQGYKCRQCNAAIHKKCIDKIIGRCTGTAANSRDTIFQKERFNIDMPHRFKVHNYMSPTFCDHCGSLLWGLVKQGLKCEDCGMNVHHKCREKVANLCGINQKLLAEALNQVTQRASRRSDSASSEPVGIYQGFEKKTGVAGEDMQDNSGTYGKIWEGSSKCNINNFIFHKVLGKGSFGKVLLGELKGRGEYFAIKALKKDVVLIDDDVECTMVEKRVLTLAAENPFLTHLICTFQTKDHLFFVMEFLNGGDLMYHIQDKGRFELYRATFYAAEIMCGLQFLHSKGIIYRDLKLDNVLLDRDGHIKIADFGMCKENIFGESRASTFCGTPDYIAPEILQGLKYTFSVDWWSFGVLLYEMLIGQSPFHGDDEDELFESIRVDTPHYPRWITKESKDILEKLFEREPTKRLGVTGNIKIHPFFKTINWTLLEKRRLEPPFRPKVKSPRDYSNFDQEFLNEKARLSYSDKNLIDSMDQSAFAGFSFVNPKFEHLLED
Procedure: (A) Cells at 80% confluence were treated with 1 μM, 2 μM or 4 μM rottlerin. After 48 h of treatment, the cells were lysed and cell lysates were fractionated by sodium dodecyl sulfate polyacrylamide gel electrophoresis (SDS-PAGE) and transferred onto nitrocellulose membrane to determine PKCδ and TG2 protein expression by western blot analysis. […] Experiments were repeated at least three times.
After treatment, the cells were collected and centrifuged, and whole-cell lysates were obtained using a lysis buffer. Total protein concentration was determined using a DC protein assay kit (Bio-Rad, Hercules, Calif., USA). […] Aliquots containing 30 μg of total protein from each sample were subjected to sodium dodecyl sulfate-polyacrylamide gel electrophoresis (SDS-PAGE) with a 4-20% gradient and electrotransferred to nitrocellulose membranes. The membranes were blocked with 5% dry milk in tris-buffered saline-tween 20 (TBST), probed with primary antibodies diluted in TBST containing 2.5% dry milk and incubated at 4° C. overnight. […] Mouse anti-β-actin and donkey anti-mouse secondary antibody were purchased from Sigma Chemical (St. Louis, Mo., USA) so that β-actin expression could be monitored to ensure equal loading of proteins. […] The blots were visualized with a Fluor Chem 8900 imager and quantified by a densitometer using the Alpha Imager application program (Alpha Innotech). […]

Q: With CC(=O)c1c(O)c(C)c(O)c(Cc2c(O)c3c(c(C(=O)/C=C/c4ccccc4)c2O)OC(C)(C)C=C3)c1O [rottlerin] as the molecule, how does the “effect on TG2 expression at the level of transcription” value (TG2 [1]) read?
A: inhibitory effect

Q: And the “apoptosis (accumulation in sub-G1 phase)” value (MDA-Panc28 cells [2]; 4 μM for 48 h, FACS)?
A: failed to promote any apoptosis

Q: And the PARP cleavage (MDA-Panc28 cells [2]; Western blot)?
A: failed to show any poly ADP-ribose polymerase (PARP) cleavage

Q: And the “Beclin 1 expression” value (Beclin 1)?
A: Expression levels did not change

Q: And the TG2 expression (TG2 [3])?
A: parallel decrease in TG2 expression

Q: And the inhibition at 4 µM (MDA-Panc28 cells [4])?
A: 49%

Q: What about the “inhibition of PKCδ protein expression” value (PKCδ; 2 μM) of the same molecule?
A: 72%

Q: And the “inhibition of PKCδ protein expression” value (PKCδ; 4 μM)?
A: 94%
